Test results published in US20200129535A1, “DESMOCOLLIN 1 INHIBITORS FOR THE PREVENTION OR TREATMENT OF ATHEROSCLEROSIS” (priority 2017, published 2020).
Like-named read-outs stand apart in the source and are kept apart here.

Test system: Primary human skin fibroblasts
Experiment: apoA-I-mediated cholesterol efflux study (promotion of HDL biogenesis) with compounds
Assay type: cell-based
Details: for EC50: Homo sapiens, Skin fibroblast, [3H]-cholesterol-labelled, cholesterol-loaded fibroblasts, 5 μg/ml apoA-I for 24 h, compound added during equilibration and apoA-I treatment
Description: FIGS. 17(A) to 17(C) show rutin (A), acarbose (B) and docetaxel (C) can promote apoA-I-mediated cholesterol efflux. Primary human skin fibroblasts were labelled with 0.2 μCi/ml of [^3H]-cholesterol during growth, loaded with 30 μg/ml of unlabeled cholesterol for 24 h, equilibrated for 24 h, and treated with 5 μg/ml of apoA-I for 24 h to determine efflux of cellular cholesterol by apoA-I. The indicated concentrations of rutin, acarbose and docetaxel were added during the equilibration and apoA-I treatment period. Results are expressed as percentage of total (cell plus medium) [^3H]-sterol appearing in the medium. Values are the mean+SD of quadruplicate determinations. One-way analysis of variance with Dunnett's post-hoc correction was performed to calculate multiplicity-adjusted P values. *P<0.05; **P<0.001; ***P<0.0001 compared with the group treated with apoA-I alone.
To investigate the biological activity of the 51 compounds identified in Example 3 in modulating HDL biogenesis, we performed an apoA-I-mediated cholesterol efflux study as described previously (see Choi, H. Y. et al., J Biol Chem 278, 32569-32577 (2003)).

| Structure (SMILES) | EC50 (read-out: EC50 value, promotion of apoA-I-mediated HDL biogenesis) | effect on apoA-I-mediated cholesterol efflux (FIG. 17, compared with the group treated with apoA-I alone) | EC50 (read-out: half-maximal effective concentration (EC50), promotion of apoA-I-mediated HDL biogenesis) | potency rank in promoting HDL biogenesis among the 3 most active compounds (dose-response curves, FIG. 17) |
| --- | --- | --- | --- | --- |
| C[C@H]1O[C@H](O[C@H]2[C@H](O)[C@@H](O)[C@@H](O[C@H]3[C@H](O)[C@@H](O)C(O)O[C@@H]3CO)O[C@@H]2CO)[C@H](O)[C@@H](O)[C@@H]1N[C@H]1C=C(CO)[C@@H](O)[C@H](O)[C@H]1O (stereo partly shown) [No. 2, Acarbose] | 6.59 µM |  |  |  |
| CC(=O)O[C@@]12CO[C@@H]1C[C@H](O)[C@@]1(C)C(=O)[C@H](O)C3=C(C)[C@@H](OC(=O)[C@H](O)[C@@H](NC(=O)OC(C)(C)C)c4ccccc4)C[C@@](O)([C@@H](OC(=O)c4ccccc4)[C@H]21)C3(C)C [No. 17, Docetaxel] |  | promote | 0.00072 µM | most potent |
